Assay results taken from ChEMBL document CHEMBL1148522 (J Med Chem, 2006).

Target: Proto-oncogene tyrosine-protein kinase Src (Homo sapiens, UniProt P12931)
Test: Inhibition of SRC using polyE4Y as substrate

Chain of Proto-oncogene tyrosine-protein kinase Src (P12931 2-536 limits assumed): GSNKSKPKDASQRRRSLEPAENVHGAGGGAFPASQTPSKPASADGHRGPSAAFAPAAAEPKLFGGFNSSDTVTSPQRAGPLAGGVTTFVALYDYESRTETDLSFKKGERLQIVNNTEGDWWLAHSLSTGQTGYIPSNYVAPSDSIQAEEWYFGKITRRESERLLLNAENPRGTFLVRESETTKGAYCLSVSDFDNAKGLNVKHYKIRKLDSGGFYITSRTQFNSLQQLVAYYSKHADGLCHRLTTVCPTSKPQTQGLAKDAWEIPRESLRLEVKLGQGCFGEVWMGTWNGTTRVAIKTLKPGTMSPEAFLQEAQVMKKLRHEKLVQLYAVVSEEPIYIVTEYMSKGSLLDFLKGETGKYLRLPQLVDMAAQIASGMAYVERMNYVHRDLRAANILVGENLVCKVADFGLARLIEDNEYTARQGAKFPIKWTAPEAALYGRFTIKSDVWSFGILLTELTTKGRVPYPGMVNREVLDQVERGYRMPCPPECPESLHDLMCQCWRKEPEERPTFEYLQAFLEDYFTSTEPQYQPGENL

Row | IC50 [µM] | SMILES
1 | > 700 | CC[C@H](C)[C@H](NC(=O)[C@H](CS)NC(C)=O)C(=O)N[C@@H](Cc1ccc(O)cc1)C(=O)N[C@@H](CCCCN)C(=O)N[C@@H](Cc1ccc(O)cc1)C(=O)N[C@@H](Cc1ccc(N)cc1)C(=O)O
2 | > 700 | CC[C@H](C)[C@H](NC(=O)[C@H](CS)NC(C)=O)C(=O)N[C@@H](Cc1ccc(O)cc1)C(=O)N[C@@H](CCCCN)C(=O)N[C@@H](Cc1ccc(NS(C)(=O)=O)cc1)C(=O)N[C@@H](Cc1ccc(O)cc1)C(=O)O
